Data as given in BindingDB's records for doi:10.1021/jm001055e (Friedrich-Alexander University, 2001).

These compounds were tested against T1, D(4) dopamine receptor (Homo sapiens, UniProt P21917) (assay: Ability to displace [3H]spiperone from dopamine receptor D4.4 expressed in CHO-K1 cells).
T1 sequence (P21917 whole entry): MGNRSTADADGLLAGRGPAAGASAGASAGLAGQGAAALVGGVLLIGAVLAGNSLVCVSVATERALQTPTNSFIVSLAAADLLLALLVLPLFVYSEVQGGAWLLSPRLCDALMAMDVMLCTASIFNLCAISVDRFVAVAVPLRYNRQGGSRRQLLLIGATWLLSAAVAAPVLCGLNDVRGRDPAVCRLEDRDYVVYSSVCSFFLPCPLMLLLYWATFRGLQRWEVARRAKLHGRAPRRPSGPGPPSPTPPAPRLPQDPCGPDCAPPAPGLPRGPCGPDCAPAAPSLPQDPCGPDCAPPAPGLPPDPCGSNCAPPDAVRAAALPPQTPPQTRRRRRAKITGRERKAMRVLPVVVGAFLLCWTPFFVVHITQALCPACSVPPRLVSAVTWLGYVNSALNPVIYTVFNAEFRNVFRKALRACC

| SMILES | Ki [nM] |
| --- | --- |
| CCN1CCN(Cc2cnn3ccccc23)CC1 | 23900 |
| FC(F)(F)c1cccc(N2CCN(Cc3cnn4ccccc34)CC2)c1 | 1.91 |
| Clc1ccc(N2CCN(Cc3ccccc3)CC2)cc1 | 251 |
| Clc1cccc(N2CCN(Cc3cnn4ccc5ccccc5c34)CC2)c1 | 794 |
| Clc1ccc(N2CCN(Cc3cc[nH]c3)CC2)cc1 | 38.9 |
| Clc1ccc(N2CCN(Cc3cnn4c(I)cccc34)CC2)cc1 | 5.01 |
| Clc1cccc(N2CCN(Cc3cnn4c3ccc3ccccc34)CC2)c1 | 218 |
| Clc1ccc(N2CCN(Cc3ccc[nH]3)CC2)cc1 | 26.3 |
| C#Cc1ccc(N2CCN(Cc3cnn4ccccc34)CC2)cc1 | 4.37 |
| Clc1ccc(N2CCN(Cc3cnn4ccccc34)CC2)cc1Cl | 5.62 |
| Fc1ccc(N2CCN(Cc3cnn4ccccc34)CC2)cc1 | 20 |
| Clc1ccc(N2CCN(Cc3cc4ccccc4[nH]3)CC2)cc1 | 18.2 |
| OCc1ccc2c(CN3CCN(c4ccccc4)CC3)cnn2c1 | 19.5 |
| Cc1cccn2ncc(CN3CCN(c4ccc(Cl)cc4)CC3)c12 [3-[4-(4-Chloro-phenyl)-piperazin-1-ylmethyl]-4-methyl-pyrazolo[1,5-a]pyridine] | 50.1 |
| C#Cc1cccc2c(CN3CCN(c4ccc(Cl)cc4)CC3)cnn12 [3-[4-(4-Chloro-phenyl)-piperazin-1-ylmethyl]-7-ethynyl-pyrazolo[1,5-a]pyridine] | 1.23 |
| Cc1cccc2c(CN3CCN(c4ccc(Cl)cc4)CC3)cnn12 [4-(4-Chloro-phenyl)-1-(7-methyl-pyrazolo[1,5-a]pyridin-3-ylmethyl)-piperazin-1-ium] | 2.69 |
| N#CC(C#N)=Cc1ccc(CN2CCN(c3ccc(Cl)cc3)CC2)[nH]1 [4-(4-Chloro-phenyl)-1-[5-(2,2-dicyano-vinyl)-1H-pyrrol-2-ylmethyl]-piperazin-1-ium] | 9.55 |
| Clc1ccc(N2CCN(Cc3cc4ccccn4n3)CC2)cc1 [4-(4-Chloro-phenyl)-1-pyrazolo[1,5-a]pyridin-2-ylmethyl-piperazin-1-ium] | 2.19 |
